Data reported in US12077503B2, “Substituted cyclic amides and their use as herbicides” (FMC CORPORATION, priority 2015, dated 2024).

Columns and labels:
Assay in all cases: Test C preemergence
Assay type in all cases: in vivo
Settings in all cases: scale 0 to 100, 0 no effect, 100 complete control
[1] = test system: lambsquarters (Chenopodium album)
Description: (§1) Seeds of plant species selected from blackgrass (Alopecurus myosuroides), ryegrass, Italian (Italian ryegrass, Lolium multiflorum), wheat (winter wheat, Triticum aestivum), Galium (catchweed bedstraw, Galium aparine), corn (Zea mays), crabgrass, large (large crabgrass, Digitaria sanguinalis), foxtail, giant (giant foxtail, Setaria faberii), johnsongrass (Sorghum halepense), lambsquarters (Chenopodium album), morningglory (Ipomoea coccinea), nutsedge, yellow (yellow nutsedge, Cyperus esculentus), pigweed (Amaranthus retroflexus), ragweed (common ragweed, Ambrosia elatior), soybean (Glycine max), barnyardgrass (Echinochloa crus-galli), oilseed rape (Brassica napus), waterhemp (common waterhemp, Amaranthus rudis) and velvetleaf (Abutilon theophrasti) were planted into a blend of loam soil and sand and treated preemergence with test chemicals formulated in a non-phytotoxic solvent mixture which included a surfactant.
(§2) At the same time, plants selected from these crop and weed species and also Kochia (Kochia scoparia), oat, wild (wild oat, Avena fatua), and chickweed (common chickweed, Stellaria media) were planted in pots containing Sunshine Redi-Earth® planting medium comprising spaghnum peat moss, vermiculite, starter nutrients and dolomitic limestone and treated with postemergence applications of test chemicals formulated in the same manner. Plants ranged in height from 2 to 18 cm (1- to 4-leaf stage) for postemergence treatments. Treated plants and controls were maintained in a greenhouse for 13 to 15 d, after which time all species were compared to controls and visually evaluated. Plant response ratings, summarized in Table C, are based on a scale of 0 to 100 where 0 is no effect and 100 is complete control. A dash (-) response means no test result.

[2] = test system: barnyardgrass (Echinochloa crus-galli)
Description: as §1, §2

[3] = test system: ragweed (common ragweed, Ambrosia elatior)
Description: as §1, §2

[4] = test system: waterhemp (common waterhemp, Amaranthus rudis)
Description: as §1, §2

[5] = test system: nutsedge, yellow (yellow nutsedge, Cyperus esculentus)
Description: as §1, §2

[6] = test system: soybean (Glycine max)
Description: as §1, §2

[7] = test system: wheat (winter wheat, Triticum aestivum)
Description: as §1, §2

[8] = test system: pigweed (Amaranthus retroflexus)
Description: as §1, §2

[9] = test system: foxtail, giant (giant foxtail, Setaria faberii)
Description: as §1, §2

[10] = test system: ryegrass, Italian (Italian ryegrass, Lolium multiflorum)
Description: as §1, §2

[11] = test system: velvetleaf (Abutilon theophrasti)
Description: as §1, §2

[12] = test system: Galium (catchweed bedstraw, Galium aparine)
Description: as §1, §2

[13] = test system: blackgrass (Alopecurus myosuroides)
Description: as §1, §2

[14] = test system: morningglory (Ipomoea coccinea)
Description: as §1, §2

[15] = test system: crabgrass, large (large crabgrass, Digitaria sanguinalis)
Description: as §1, §2

[16] = test system: oilseed rape (Brassica napus)
Description: as §1, §2

[17] = test system: corn (Zea mays)
Description: as §1, §2

CN1CC(c2ccc(C(F)(F)F)c(F)c2)C(C(=O)Nc2cccc(F)c2F)C1=O (stereo not drawn) [Compound 396]
50: Plant response rating, Lambsquarters ([1]; 31 g ai/ha) | Plant response rating, Blackgrass ([13]; 31 g ai/ha) | Plant response rating, Blackgrass ([13]; 62 g ai/ha) | Plant response rating, Corn ([17]; 62 g ai/ha)
70: Plant response rating, Lambsquarters ([1]; 125 g ai/ha) | Plant response rating, Wheat ([7]; 125 g ai/ha) | Plant response rating, Morningglory ([14]; 250 g ai/ha) | Plant response rating, Oilseed Rape ([16]; 62 g ai/ha)
40: Plant response rating, Velvetleaf ([11]; 62 g ai/ha) | Plant response rating, Morningglory ([14]; 62 g ai/ha)
65: Plant response rating, Ragweed ([3]; 31 g ai/ha) | Plant response rating, Velvetleaf ([11]; 125 g ai/ha) | Plant response rating, Corn ([17]; 125 g ai/ha)
55: Plant response rating, Ryegrass, Italian ([10]; 62 g ai/ha)
60: Plant response rating, Velvetleaf ([11]; 250 g ai/ha) | Plant response rating, Morningglory ([14]; 125 g ai/ha)
20: Plant response rating, Nutsedge, Yellow ([5]; 250 g ai/ha)
100: Plant response rating, Galium ([12]; 125 g ai/ha) | Plant response rating, Galium ([12]; 250 g ai/ha) | Plant response rating, Crabgrass, Large ([15]; 250 g ai/ha)
90: Plant response rating, Waterhemp ([4]; 62 g ai/ha) | Plant response rating, Wheat ([7]; 250 g ai/ha) | Plant response rating, Pigweed ([8]; 125 g ai/ha) | Plant response rating, Galium ([12]; 31 g ai/ha) | Plant response rating, Galium ([12]; 62 g ai/ha)
75: Plant response rating, Lambsquarters ([1]; 62 g ai/ha) | Plant response rating, Corn ([17]; 250 g ai/ha)
10: Plant response rating, Wheat ([7]; 62 g ai/ha) | Plant response rating, Morningglory ([14]; 31 g ai/ha)
85: Plant response rating, Barnyardgrass ([2]; 31 g ai/ha) | Plant response rating, Ragweed ([3]; 125 g ai/ha) | Plant response rating, Ragweed ([3]; 250 g ai/ha) | Plant response rating, Pigweed ([8]; 31 g ai/ha) | Plant response rating, Oilseed Rape ([16]; 250 g ai/ha)
98: Plant response rating, Lambsquarters ([1]; 250 g ai/ha) | Plant response rating, Barnyardgrass ([2]; 125 g ai/ha) | Plant response rating, Barnyardgrass ([2]; 250 g ai/ha) | Plant response rating, Foxtail, Giant ([9]; 62 g ai/ha) | Plant response rating, Foxtail, Giant ([9]; 125 g ai/ha) | Plant response rating, Foxtail, Giant ([9]; 250 g ai/ha) | Plant response rating, Crabgrass, Large ([15]; 62 g ai/ha) | Plant response rating, Crabgrass, Large ([15]; 125 g ai/ha)
0: Plant response rating, Nutsedge, Yellow ([5]; 31 g ai/ha) | Plant response rating, Nutsedge, Yellow ([5]; 62 g ai/ha) | Plant response rating, Soybean ([6]; 62 g ai/ha) | Plant response rating, Soybean ([6]; 125 g ai/ha) | Plant response rating, Soybean ([6]; 250 g ai/ha) | Plant response rating, Corn ([17]; 31 g ai/ha)
95: Plant response rating, Barnyardgrass ([2]; 62 g ai/ha) | Plant response rating, Waterhemp ([4]; 125 g ai/ha) | Plant response rating, Waterhemp ([4]; 250 g ai/ha) | Plant response rating, Pigweed ([8]; 250 g ai/ha) | Plant response rating, Foxtail, Giant ([9]; 31 g ai/ha) | Plant response rating, Crabgrass, Large ([15]; 31 g ai/ha)
30: Plant response rating, Nutsedge, Yellow ([5]; 125 g ai/ha) | Plant response rating, Ryegrass, Italian ([10]; 125 g ai/ha) | Plant response rating, Oilseed Rape ([16]; 31 g ai/ha)
80: Plant response rating, Ragweed ([3]; 62 g ai/ha) | Plant response rating, Pigweed ([8]; 62 g ai/ha) | Plant response rating, Ryegrass, Italian ([10]; 250 g ai/ha) | Plant response rating, Blackgrass ([13]; 125 g ai/ha) | Plant response rating, Blackgrass ([13]; 250 g ai/ha) | Plant response rating, Oilseed Rape ([16]; 125 g ai/ha)

CN1CC(c2ccc(C(F)(F)F)c(F)c2)C(C(=O)Nc2ccccc2F)C1=O (stereo not drawn) [Compound 399]
75: Plant response rating, Wheat ([7]; 250 g ai/ha) | Plant response rating, Pigweed ([8]; 62 g ai/ha) | Plant response rating, Ryegrass, Italian ([10]; 125 g ai/ha)
98: Plant response rating, Lambsquarters ([1]; 250 g ai/ha) | Plant response rating, Barnyardgrass ([2]; 62 g ai/ha) | Plant response rating, Barnyardgrass ([2]; 250 g ai/ha) | Plant response rating, Waterhemp ([4]; 250 g ai/ha) | Plant response rating, Foxtail, Giant ([9]; 125 g ai/ha) | Plant response rating, Foxtail, Giant ([9]; 250 g ai/ha) | Plant response rating, Crabgrass, Large ([15]; 31 g ai/ha) | Plant response rating, Crabgrass, Large ([15]; 62 g ai/ha)
35: Plant response rating, Oilseed Rape ([16]; 31 g ai/ha) | Plant response rating, Corn ([17]; 31 g ai/ha)
15: Plant response rating, Wheat ([7]; 62 g ai/ha)
80: Plant response rating, Ragweed ([3]; 250 g ai/ha) | Plant response rating, Waterhemp ([4]; 62 g ai/ha) | Plant response rating, Wheat ([7]; 125 g ai/ha) | Plant response rating, Galium ([12]; 31 g ai/ha) | Plant response rating, Blackgrass ([13]; 62 g ai/ha)
55: Plant response rating, Morningglory ([14]; 250 g ai/ha)
90: Plant response rating, Lambsquarters ([1]; 31 g ai/ha) | Plant response rating, Waterhemp ([4]; 125 g ai/ha) | Plant response rating, Pigweed ([8]; 125 g ai/ha) | Plant response rating, Galium ([12]; 125 g ai/ha) | Plant response rating, Galium ([12]; 250 g ai/ha) | Plant response rating, Blackgrass ([13]; 250 g ai/ha)
95: Plant response rating, Barnyardgrass ([2]; 31 g ai/ha) | Plant response rating, Pigweed ([8]; 250 g ai/ha) | Plant response rating, Foxtail, Giant ([9]; 31 g ai/ha) | Plant response rating, Foxtail, Giant ([9]; 62 g ai/ha)
20: Plant response rating, Velvetleaf ([11]; 62 g ai/ha)
50: Plant response rating, Ragweed ([3]; 31 g ai/ha) | Plant response rating, Ragweed ([3]; 62 g ai/ha) | Plant response rating, Ryegrass, Italian ([10]; 62 g ai/ha) | Plant response rating, Ryegrass, Italian ([10]; 250 g ai/ha) | Plant response rating, Velvetleaf ([11]; 125 g ai/ha) | Plant response rating, Blackgrass ([13]; 31 g ai/ha)
85: Plant response rating, Lambsquarters ([1]; 62 g ai/ha) | Plant response rating, Lambsquarters ([1]; 125 g ai/ha) | Plant response rating, Galium ([12]; 62 g ai/ha) | Plant response rating, Oilseed Rape ([16]; 250 g ai/ha)
0: Plant response rating, Nutsedge, Yellow ([5]; 31 g ai/ha) | Plant response rating, Nutsedge, Yellow ([5]; 62 g ai/ha) | Plant response rating, Nutsedge, Yellow ([5]; 125 g ai/ha) | Plant response rating, Nutsedge, Yellow ([5]; 250 g ai/ha) | Plant response rating, Soybean ([6]; 62 g ai/ha) | Plant response rating, Soybean ([6]; 125 g ai/ha) | Plant response rating, Soybean ([6]; 250 g ai/ha)
70: Plant response rating, Pigweed ([8]; 31 g ai/ha) | Plant response rating, Blackgrass ([13]; 125 g ai/ha) | Plant response rating, Oilseed Rape ([16]; 125 g ai/ha)
65: Plant response rating, Ragweed ([3]; 125 g ai/ha) | Plant response rating, Corn ([17]; 125 g ai/ha)
100: Plant response rating, Barnyardgrass ([2]; 125 g ai/ha) | Plant response rating, Crabgrass, Large ([15]; 125 g ai/ha) | Plant response rating, Crabgrass, Large ([15]; 250 g ai/ha)
30: Plant response rating, Morningglory ([14]; 125 g ai/ha) | Plant response rating, Oilseed Rape ([16]; 62 g ai/ha)
40: Plant response rating, Morningglory ([14]; 31 g ai/ha) | Plant response rating, Morningglory ([14]; 62 g ai/ha) | Plant response rating, Corn ([17]; 62 g ai/ha)
60: Plant response rating, Velvetleaf ([11]; 250 g ai/ha) | Plant response rating, Corn ([17]; 250 g ai/ha)
